Experimental data published in patent US8603980B2, “Glutamate receptor antagonists and methods of use” (The Johns Hopkins University, priority 2007, dated 2013).
Entries after “also recorded” stand apart in the source; their conditions may differ. Where two headings read alike, the source gives them in different places.

Experiments:
human platelets = assay: Platelet activation by FACS (PAC-1 antibody binding or surface P-selectin); format: cell-based; conditions: for AMPA mediated increase in TRAP induced platelet activation: substance added before AMPA, CNQX 100 μM, JST 1 μM
Experimental: It was next determined whether glutamate is a mediator of platelet activation.
Blood was collected into citrate anticoagulant, platelets were isolated as platelet rich plasma (PRP) by centrifugation at 180 g for 15 min, and then diluted in Tyrode's buffer 1:20 for activation flow cytometry studies. […] Washed platelets were resuspended in Tyrode's.

megakaryocytes = assay: Whole-cell recordings from freshly isolated megakaryocytes; format: cell-based, mouse
Experimental: All procedures using animals were approved by the University of Miyazaki Institutional Animal Care and Use Committee. Megakaryocyte preparation was performed as reported previously (43). Briefly, mouse bone marrow was flushed with Na+-rich external solution (Na+-ES, 150 mM NaCl, 1 mM CaCl2, and 10 mM HEPES, pH adjusted to 7.2 using NMDG-OH). Cells were dispersed by repetitive pipetting, washed three times by gentle centrifugation, resuspended in Na+-ES and used within 90 min of isolation.
Whole-cell recordings were obtained from freshly isolated megakaryocytes using an intracellular solution of the following composition: 150 mM CsCl, 1 mM ethylene glycol bis(-aminoethylether)-N,N,N′,N′-tetraacetic acid (EGTA) and 10 mM HEPES. The pH was adjusted to 7.3 using NMDG-OH. The patch-clamp procedures were similar to those described previously (43). Briefly, the experiments were performed in the tight seal whole-cell configuration at room temperature and electrical signals were acquired with an HEKA EPC-7 (Darmstadt, Germany). The pipette resistances ranged between 2 MΩ and 3 MΩ. Current-voltage relationships (I-V curves) were obtained by clamping the cell to different potentials in 30 mV increments (−30, 0 and +30 mV; each of 35 ms duration) from a holding potential of −60 mV. I-V curves obtained prior to the application of the agonists were subtracted from those (typically two) obtained in the presence of the agonists. The current responses were monitored on a chart recorder (WR7700, Graphtec, Tokyo, Japan) through a lowpass filter (200 Hz). Chemicals and reagents used were purchased from either Sigma (St. Louis, Mo.) or Wako Pure Chemicals (Osaka, Japan). […] The perfusion pipette was located within 30 μm of the cell and the puff pressure was adjusted to obtain rapid and effective agonist application (<10 msec).

platelets [1] = assay: Platelet aggregation (aggregometer) in response to TRAP; format: cell-based, human; conditions: for final aggregation: exogenous addition
Experimental: The functional relevance of targeting platelet AMPAR signaling was assayed by first measuring aggregation in response to TRAP (10 μM) after incubating platelets with control or CNQX (1-100 μM). […] Human platelets were isolated from healthy volunteers who had not taken aspirin or NSAID within 10 d, under a protocol approved by The Johns Hopkins University School of Medicine Institutional Review Board (JCCI). Blood was collected into citrate anticoagulant, platelets were isolated as platelet rich plasma (PRP) by centrifugation at 180 g for 15 min, and then diluted in Tyrode's buffer 1:20 for activation flow cytometry studies. To determine surface GluR1, a Fc Blocking antibody was added to reduce non-specific background antibody binding. Mouse platelets were isolated by collection into heparinized Tyrode's buffer and isolated by centrifugation. Washed platelets were resuspended in Tyrode's. Intracellular ion concentrations were performed after incubating platelets diluted 1:20 in Tyrode's buffer with SBFI for 45 minutes prior to experiments.

platelets [2] = assay: Intracellular sodium in platelets (SBFI dye, FACS); format: cell-based, human; conditions: for Na+ level / influx in platelets treated with TRAP alone: amiloride 100 μM
Experimental: Human platelets were isolated from healthy volunteers who had not taken aspirin or NSAID within 10 d, under a protocol approved by The Johns Hopkins University School of Medicine Institutional Review Board (JCCI). Blood was collected into citrate anticoagulant, platelets were isolated as platelet rich plasma (PRP) by centrifugation at 180 g for 15 min, and then diluted in Tyrode's buffer 1:20 for activation flow cytometry studies. To determine surface GluR1, a Fc Blocking antibody was added to reduce non-specific background antibody binding. Mouse platelets were isolated by collection into heparinized Tyrode's buffer and isolated by centrifugation. Washed platelets were resuspended in Tyrode's. Intracellular ion concentrations were performed after incubating platelets diluted 1:20 in Tyrode's buffer with SBFI for 45 minutes prior to experiments.

[3] = Intravital microscopy of FeCl3 induced thrombosis in mesenteric arterioles; format: in vivo, mouse; conditions: for time to total vessel occlusion: FeCl3 injury
[4] = test system: AMPA receptor subunits GluR1-4 and kainate receptor subunit GluR5; conditions: cited from earlier work
[5] = moderate TRAP (5 μM), platelets pre-incubated with substance
[6] = i.v. 20 mins before FeCl3, vs PBS

Experimental for Tail bleeding time: Mice were treated intravenously (i.v.) with control PBS or CNQX (0.1 mg/kg) and 20 mins later tail bleeding times were determined.
6 week old male mice were anesthetized with ketamine and xylazine (80/13 mg/kg) and injected i.v. with either PBS or CNQX:HBC, 0.1 mg/kg of active CNQX. Twenty minutes later the distal 3 mm of the tail was amputated, immersed in 37° C. saline and the time to visual cessation of bleeding recorded.

Cc1onc(O)c1C[C@H](N)C(=O)O [AMPA, alpha(α)-amino-3-hydroxy-5-methyl-4-isoxazolepropionic acid]
platelet activation in response to thromboxane mimetic U46619 (human platelets): increases platelet activation
current on rapid application without cyclothiazide (megakaryocytes): did not induce a measurable current
inward current following rapid perfusion (megakaryocytes): 8.6+/−4.5 pA
reversal potential of the agonist-induced current (megakaryocytes): ~0 mV
platelets aggregated at 1 min post-TRAP (platelets [1]; AMPA 1 mM pre-treatment): approximately 75%
rate of early aggregation (platelets [1]; AMPA 1 mM, TRAP 10 μM): increases
final aggregation (platelets [1]): no effect
Na+ influx in response to TRAP after NHE inhibition (platelets [2]; AMPA added after amiloride (100 μM)): restores Na+ influx

C=C(C)[C@H]1CN[C@H](C(=O)O)[C@H]1CC(=O)O [KA, kainic acid]
TRAP induced platelet activation (PAC-1 antibody binding) (human platelets; [5]): dose dependently increases
inward current following rapid perfusion (megakaryocytes; 100 μM, cyclothiazide in the recording solution): 3.1+/−0.9 pA
current on rapid application without cyclothiazide (megakaryocytes; 0.1 or 1 mM, no cyclothiazide): did not induce a measurable current
reversal potential of the agonist-induced current (megakaryocytes; I-V curves, cyclothiazide, no obvious rectification): ~0 mV

N[C@@H](CCC(=O)O)C(=O)O [glutamate]
ATP mediated platelet activation (human platelets): not increased
P2Y agonist 2-Me-ADP induced platelet activation (human platelets): increases
TRAP induced platelet activation (PAC-1 antibody binding) (human platelets): significantly increases platelet activation; also recorded: dose dependently increases
TRAP induced platelet activation: P-selectin expression (human platelets): increases agonist induced platelet activation
collagen induced platelet activation (human platelets): no effect
epinephrine induced platelet activation (human platelets): significantly increases
increase in platelet activation following low concentration TRAP versus control (human platelets): approximately two times greater
increase in platelet activation following low concentration thromboxane mimetic versus control (human platelets): approximately three times greater than control
increase of TRAP induced platelet activation compared to control treated platelets (human platelets): greater than 50%
platelet activation at high TRAP concentration (human platelets): no effect
platelet activation in response to thromboxane mimetic U46619 (human platelets): dose dependently increases
resting platelet activation (PAC-1 antibody binding) (human platelets): does not increase
final aggregation (platelets [1]): no effect

N#Cc1cc2[nH]c(=O)c(=O)[nH]c2cc1[N+](=O)[O-] [CNQX, -cyano-7-nitroquinoxaline-2,3-dione]
time to total vessel occlusion [3]: prolonged
time to platelet adhesion (greater than 10 platelets adherent for greater than 10 sec) [3, 6]: prolonged
time to thrombus formation (first stable thrombus greater than 20 μm) [3, 6]: prolonged
average tail bleeding time (Tail bleeding time; 0.1 mg/kg i.v., 20 mins before): approximately 600 sec
selectivity for AMPAR subunits versus KA receptor subunits [4]: 20-150 fold
TRAP induced platelet activation at low antagonist concentration (human platelets; 10 μM CNQX): significantly decreases platelet activation
TRAP induced platelet activation: P-selectin expression (human platelets; P-selectin by FACS): decreases platelet activation
TRAP induced platelet activation (PAC-1 antibody binding) (human platelets; [5]): inhibits
AMPA mediated increase in TRAP induced platelet activation (human platelets): inhibits the effects of AMPA
AMPA induced inward current in presence of antagonist (megakaryocytes; CNQX 30 μM): blocked
platelet aggregation in response to TRAP (platelets [1]; TRAP 10 μM, CNQX 1-100 μM): dose dependently reduces platelet aggregation
Na+ concentration in platelets treated with AMPA and TRAP (platelets [2]; CNQX 100 μM): decreases Na+ concentrations
Na+ level / influx in platelets treated with TRAP alone (platelets [2]; CNQX 100 μM): decreases Na+ levels

N[C@@H](Cn1ccc(=O)n(Cc2ccccc2C(=O)O)c1=O)C(=O)O [UBP302]
time to total vessel occlusion [3]: prolonged time to total vessel occlusion
bleeding time in mice (Tail bleeding time; mouse, in vivo): prolongs bleeding time
platelet activation by FACS (human platelets): dose dependently reduces platelet activation

N[C@@H](Cn1nc(Cl)c(=O)[nH]c1=O)C(=O)O [5-chloro-6-azawillardiine]
selectivity for GluR4 over GluR1 and 2 ([4]; at the cost of selectivity for AMPA over kainate receptors): some selectivity

N=C(N)NC(=O)c1nc(Cl)c(N)nc1N [amiloride]
Na+ level / influx in platelets treated with TRAP alone (platelets [2]; CNQX 100 μM): reduces Na+ influx

O=C(O)C1CN(CCCP(=O)(O)O)CCN1 (racemic) [CPP, (±)-3-(2-Carboxypiperazin-4-yl)propyl-1-phosphonic acid]
glutamate mediated increase in TRAP induced platelet activation (human platelets): does not inhibit

NCCCNCCCCNCCC(=O)NCCCCCNC(=O)[C@H](CC(N)=O)NC(=O)Cc1ccc(O)cc1O [JST]
AMPA mediated increase in TRAP induced platelet activation (human platelets): no effect

CC(C)(C)c1o[nH]c(=O)c1CC(N)C(=O)O (stereo not shown) [ATPA]
platelet activation by FACS (human platelets): increases platelet activation
